# Data published in patent publication US10287293B2, “Bicyclic heterocyclic compounds as PDE2 inhibitors” (Merck Sharp & Dohme Corp., priority 2015, dated 2019).
# Tested on: not given
# Assay: not given
# Conditions: literature report; cited from earlier work
row,Structure (SMILES),brain penetration
1,COc1ccc(Cc2nn3c([C@@H](CCCc4ccccc4)[C@@H](C)O)nc(C)c3c(=O)[nH]2)cc1OC [Bay 60-7550],limited

# Molecular target: human PDE2A1 (Homo sapiens (Human), UniProt O00408)
# Assay: PDE selectivity panel IMAP FP assay, human PDE2
# Format: biochemical
# Conditions: FAM cAMP 50 nM containing 1000 nM cGMP
# Experimental: Selectivity for PDE2, as compared to other PDE families, was assessed using the IMAP® technology. Human PDE10A2 enzyme was prepared from cytosolic fractions of transiently transfected HEK cells. […] The enzyme and the substrate were then added to the assay plates in two consecutive additions of 10 μL and then shaken to mix. The reaction was allowed to proceed at room temperature for 60 minutes. […] The enzymatic reaction was stopped by addition of 60 μL of the binding solution to each well of the assay plate. The plates were sealed and shaken for 10 seconds. The plates were incubated at room temperature for one hour, then the parallel and perpendicular fluorescence was measured using a Tecan Genios Pro plate reader (Tecan, Switzerland). […] The intrinsic PDE2 inhibitory activity of a compound which may be used in accordance with the present invention may be determined by these assays. […] Additional data is provided in the following Examples.
# Chain of human PDE2A1 (O00408 other isoform, or with tags, fused parts or gaps): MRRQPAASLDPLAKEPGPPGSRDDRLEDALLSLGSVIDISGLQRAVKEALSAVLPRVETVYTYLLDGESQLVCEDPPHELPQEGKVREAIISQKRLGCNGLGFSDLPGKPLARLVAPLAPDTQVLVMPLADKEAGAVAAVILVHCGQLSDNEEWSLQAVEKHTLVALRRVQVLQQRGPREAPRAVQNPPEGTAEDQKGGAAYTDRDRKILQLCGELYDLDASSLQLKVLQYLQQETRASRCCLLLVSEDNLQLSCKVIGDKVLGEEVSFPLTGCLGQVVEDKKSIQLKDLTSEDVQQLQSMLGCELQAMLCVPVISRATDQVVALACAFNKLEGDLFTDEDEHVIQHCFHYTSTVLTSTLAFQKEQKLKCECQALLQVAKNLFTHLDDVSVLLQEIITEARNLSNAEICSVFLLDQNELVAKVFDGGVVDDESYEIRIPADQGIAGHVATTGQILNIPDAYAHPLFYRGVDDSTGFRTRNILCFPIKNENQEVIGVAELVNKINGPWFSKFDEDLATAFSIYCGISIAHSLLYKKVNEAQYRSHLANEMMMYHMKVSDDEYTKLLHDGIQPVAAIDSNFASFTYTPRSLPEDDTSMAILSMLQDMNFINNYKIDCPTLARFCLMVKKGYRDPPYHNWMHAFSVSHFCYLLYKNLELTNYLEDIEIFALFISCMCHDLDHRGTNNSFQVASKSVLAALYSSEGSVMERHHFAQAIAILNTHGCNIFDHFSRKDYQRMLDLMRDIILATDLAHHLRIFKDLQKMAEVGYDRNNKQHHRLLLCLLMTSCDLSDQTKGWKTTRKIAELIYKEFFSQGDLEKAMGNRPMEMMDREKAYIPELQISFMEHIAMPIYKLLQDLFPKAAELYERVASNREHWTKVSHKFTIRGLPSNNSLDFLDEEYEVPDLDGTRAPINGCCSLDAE
row,Structure (SMILES),Ki [nM]
1,"Cc1nc2c([C@@H](C)c3ccc(C(F)(F)F)cc3)nn([C@H](C)CO)c2c(=O)[nH]1 (single isomer, unassigned) [Example 22, 1-((R)-1-Hydroxypropan-2-yl)-5-methyl-3-((S)-1-(4-(trifluoromethyl)phenyl)ethyl)-1,6-dihydro-7H-pyrazolo[4,3-d]pyrimidin-7-one or 1-((R)-1-Hydroxypropan-2-yl)-5-methyl-3-((R)-1-(4-(trifluoromethyl)phenyl)ethyl)-1,6-dihydro-7H-pyrazolo[4,3-d]pyrimidin-7-one]",15.6
2,"Cc1nc2c(C(C)c3cccc(C(F)(F)F)c3F)nn(CCO)c2c(=O)[nH]1 (single isomer, unassigned) [Example 10, (S)- or (R)-3-(1-(2-Fluoro-3-(trifluoromethyl)phenyl)ethyl)-1-(2-hydroxyethyl)-5-methyl-1,6-dihydro-7H-pyrazolo[4,3-d]pyrimidin-7-one]",206
3,"Cc1nc2c(C(C)c3cccc(C(F)(F)F)c3F)nn(CCO)c2c(=O)[nH]1 (single isomer, unassigned) [Example 9, (R)- or (S)-3-(1-(2-Fluoro-3-(trifluoromethyl)phenyl)ethyl)-1-(2-hydroxyethyl)-5-methyl-1,6-dihydro-7H-pyrazolo[4,3-d]pyrimidin-7-one]",2800
4,"Cc1nn2c([C@@H](C)c3ccc(C(F)(F)F)cc3)nc(C)c2c(=O)[nH]1 (single isomer, unassigned) [Example 27]",17.2
5,"Cc1nc2c([C@@H](C)c3ccc(C(F)(F)F)cc3)nn([C@H](C)CO)c2c(=O)[nH]1 (single isomer, unassigned) [Example 21, 1-((R)-1-Hydroxypropan-2-yl)-5-methyl-3-((S)-1-(4-(trifluoromethyl)phenyl)ethyl)-1,6-dihydro-7H-pyrazolo[4,3-d]pyrimidin-7-one or 1-((R)-1-Hydroxypropan-2-yl)-5-methyl-3-((R)-1-(4-(trifluoromethyl)phenyl)ethyl)-1,6-dihydro-7H-pyrazolo[4,3-d]pyrimidin-7-one]",239
6,"Cc1nc2c([C@@H](C)c3ccc(C(F)(F)F)cc3)nn([C@@H](C)CO)c2c(=O)[nH]1 (single isomer, unassigned) [Example 23, 1-((S)-1-Hydroxypropan-2-yl)-5-methyl-3-((S)-1-(4-(trifluoromethyl)phenyl)ethyl)-1,6-dihydro-7H-pyrazolo[4,3-d]pyrimidin-7-one or 1-((S)-1-Hydroxypropan-2-yl)-5-methyl-3-((R)-1-(4-(trifluoromethyl)phenyl)ethyl)-1,6-dihydro-7H-pyrazolo[4,3-d]pyrimidin-7-one]",142

# Other lines, results leading:
row,Ki [nM],Structure (SMILES)
1,62.5,"Cc1nn2c(C(C)c3ccc(OC(F)(F)F)cc3)nc(CO)c2c(=O)[nH]1 (single isomer, unassigned) [Example 32, (R)- or (S)-5-(hydroxymethyl)-2-methyl-7-(1-(4-(trifluoromethoxy)phenyl)ethyl)imidazo[5,1-f][1,2,4]triazin-4(3H)-one]"
2,1.2,"Cc1nn2c([C@@H](C)c3ccc(C(F)(F)F)cc3)nc(CO)c2c(=O)[nH]1 (single isomer, unassigned) [Example 29]"
3,0.8,"Cc1nn2c(C(C)c3ccc(C(F)(F)F)cc3F)nc(CO)c2c(=O)[nH]1 (single isomer, unassigned) [Example 31, (S)- or (R)-7-(1-(2-fluoro-4-(trifluoromethyl)phenyl)ethyl)-5-(hydroxymethyl)-2-methylimidazo[5,1-f][1,2,4]triazin-4(3H)-one]"
4,0.4,"Cc1nn2c(C(C)c3ccc(C4(C)CC4)cc3)nc(CO)c2c(=O)[nH]1 (single isomer, unassigned) [Example 37, (S)- or (R)-5-(hydroxymethyl)-2-methyl-7-(1-(4-(1-methylcyclopropyl)phenyl)ethyl)imidazo[5,1-f][1,2,4]triazin-4(3H)-one]"
5,298,"Cc1nn2c([C@@H](C)c3ccc(C(F)(F)F)cc3)nc(CO)c2c(=O)[nH]1 (single isomer, unassigned) [Example 28]"
6,1,"Cc1nn2c(C(C)c3ccc(C(F)(F)F)c(F)c3)nc(CO)c2c(=O)[nH]1 (single isomer, unassigned) [Example 35, (S)- or (R)-7-(1-(3-fluoro-4-(trifluoromethyl)phenyl)ethyl)-5-(hydroxymethyl)-2-methylimidazo[5,1-f][1,2,4]triazin-4(3H)-one]"
7,109,"Cc1nn2c(C(C)c3ccc(C4(C)CC4)cc3)nc(CO)c2c(=O)[nH]1 (single isomer, unassigned) [Example 36, (R)- or (S)-5-(hydroxymethyl)-2-methyl-7-(1-(4-(1-methylcyclopropyl)phenyl)ethyl)imidazo[5,1-f][1,2,4]triazin-4(3H)-one]"
8,6.1,"Cc1nn2c(C(C)c3ccc(C(F)(F)F)cc3)nc(CC#N)c2c(=O)[nH]1 (stereo not shown) [Example 38, 2-(2-methyl-4-oxo-7-(1-(4-(trifluoromethyl)phenyl)ethyl)-3,4-dihydroimidazo-[5,1-f][1,2,4]triazin-5-yl)acetonitrile]"
9,90.3,"Cc1nn2c([C@@H](C)c3ccc(C(F)(F)F)cc3)nc(CCO)c2c(=O)[nH]1 (single isomer, unassigned) [Example 39]"
10,200,"Cc1nn2c(C(C)c3ccc(C(F)(F)F)cc3F)nc(CO)c2c(=O)[nH]1 (single isomer, unassigned) [Example 30, (R)- or (S)-7-(1-(2-fluoro-4-(trifluoromethyl)phenyl)ethyl)-5-(hydroxymethyl)-2-methylimidazo[5,1-f][1,2,4]triazin-4(3H)-one]"
11,216,"Cc1nn2c(C(C)c3ccc(C(F)(F)F)c(F)c3)nc(CO)c2c(=O)[nH]1 (single isomer, unassigned) [Example 34, (R)- or (S)-7-(1-(3-fluoro-4-(trifluoromethyl)phenyl)ethyl)-5-(hydroxymethyl)-2-methylimidazo[5,1-f][1,2,4]triazin-4(3H)-one]"
12,1.2,"Cc1nn2c(C(C)c3ccc(OC(F)(F)F)cc3)nc(CO)c2c(=O)[nH]1 (single isomer, unassigned) [Example 33, (S)- or (R)-5-(hydroxymethyl)-2-methyl-7-(1-(4-(trifluoromethoxy)phenyl)ethyl)imidazo[5,1-f][1,2,4]triazin-4(3H)-one]"

# Molecular target: Rhesus PDE2A3 (Macaca mulatta, UniProt B3VTJ2)
# Sequence (B3VTJ2 1-941): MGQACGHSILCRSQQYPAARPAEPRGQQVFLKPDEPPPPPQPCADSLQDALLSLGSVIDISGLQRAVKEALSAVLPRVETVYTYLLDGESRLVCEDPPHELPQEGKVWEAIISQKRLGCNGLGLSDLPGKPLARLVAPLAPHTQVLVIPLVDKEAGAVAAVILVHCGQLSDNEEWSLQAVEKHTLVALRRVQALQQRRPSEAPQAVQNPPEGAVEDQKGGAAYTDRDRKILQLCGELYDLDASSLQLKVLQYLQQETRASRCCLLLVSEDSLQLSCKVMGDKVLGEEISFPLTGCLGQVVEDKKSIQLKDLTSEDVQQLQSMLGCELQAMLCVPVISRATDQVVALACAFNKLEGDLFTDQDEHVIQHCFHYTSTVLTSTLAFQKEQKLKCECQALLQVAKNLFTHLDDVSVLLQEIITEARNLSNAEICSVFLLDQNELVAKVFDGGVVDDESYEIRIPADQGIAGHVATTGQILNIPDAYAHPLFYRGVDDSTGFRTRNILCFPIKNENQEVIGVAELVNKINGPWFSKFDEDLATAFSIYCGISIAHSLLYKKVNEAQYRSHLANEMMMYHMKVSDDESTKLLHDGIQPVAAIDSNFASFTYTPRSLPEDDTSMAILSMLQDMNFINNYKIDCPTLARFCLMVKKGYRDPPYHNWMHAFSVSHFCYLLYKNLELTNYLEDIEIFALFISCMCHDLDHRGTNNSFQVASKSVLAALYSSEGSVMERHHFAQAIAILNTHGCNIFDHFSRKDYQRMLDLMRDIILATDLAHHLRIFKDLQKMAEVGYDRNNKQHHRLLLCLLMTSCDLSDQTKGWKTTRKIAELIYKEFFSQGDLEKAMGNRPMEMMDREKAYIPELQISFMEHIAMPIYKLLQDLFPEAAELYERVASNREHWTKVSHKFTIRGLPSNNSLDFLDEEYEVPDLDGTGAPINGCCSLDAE
# Assay: PDE2 fluorescence polarization (IMAP FP) inhibition assay, rhesus enzyme
# Format: biochemical, rhesus macaque
# Conditions: FAM-cAMP 50 nM substrate, cGMP 1 uM activator
row,Ki [nM],Structure (SMILES)
1,21,"Cc1nn2c([C@@H](C)c3ccc(C(F)(F)F)cc3)nc(C)c2c(=O)[nH]1 (single isomer, unassigned) [Example 27]"
2,779,"Cc1nn2c([C@@H](C)c3ccc(C(F)(F)F)cc3)nc(C)c2c(=O)[nH]1 (single isomer, unassigned) [Example 26]"

# Tested on: other PDE isoforms
# Assay: not given
# Conditions: literature report; cited from earlier work
row,Structure (SMILES),potency at other PDE isoforms
1,COc1ccc(Cc2nn3c([C@@H](CCCc4ccccc4)[C@@H](C)O)nc(C)c3c(=O)[nH]2)cc1OC [Bay 60-7550],significant potency
